Our source for the pest or weed control values is patent US11083199B2, “Heterocycle derivatives as pesticides” (Bayer Aktiengesellschaft, priority 2017, dated 2021).

What all share (format): in vivo
The subject of test [1] is Lucilia cuprina. Briefly: Lucilia cuprina test. As to conditions: 48 h, application rate 100 ppm, L1 larvae, kill after 2 days, read-out: efficacy. The protocol: Solvent: dimethyl sulfoxide To produce a suitable active ingredient formulation, 10 mg of active ingredient are mixed with 0.5 ml of dimethyl sulfoxide, and the concentrate is diluted with water to the desired concentration. About 20 L1 larvae of the Australian sheep blowfly (Lucilia cuprina) are transferred into a test vessel containing minced horsemeat and the active ingredient formulation of the desired concentration. After 2 days, the kill in % is determined. 100% means that all the larvae have been killed; 0% means that no larvae have been killed.

The test system of test [2] is Myzus persicae. The experiment in a line: Myzus persicae oral test. The following applies: 120 h, application rate 4 ppm, after 5 days, read-out: efficacy. As to the method: [table] To produce a suitable active ingredient formulation, 1 part by weight of active ingredient is dissolved with the stated parts by weight of solvent and made up to the desired concentration with water. 50 μl of the active ingredient formulation are transferred into microtitre plates and made up to a final volume of 200 μl with 150 μl of IPL41 insect medium (33%+15% sugar). Subsequently, the plates are sealed with parafilm, which a mixed population of green peach aphids (Myzus persicae) within a second microtitre plate is able to puncture and imbibe the solution. After 5 days, the efficacy in % is determined. 100% means that all the aphids have been killed; 0% means that no aphids have been killed.

In test [3] the test system is Myzus persicae. The experiment in a line: Myzus persicae spray test. The following applies: foliar, 120 h, application rate 100 g/ha, Chinese cabbage leaf discs, after 5 days, read-out: efficacy. As to the method:
(§1) [table] To produce a suitable active ingredient formulation, 1 part by weight of active ingredient is dissolved with the specified parts by weight of solvent and made up to the desired concentration with water containing an emulsifier concentration of 1000 ppm. To produce further test concentrations, the formulation is diluted with emulsifier-containing water. Discs of Chinese cabbage leaves (Brassica pekinensis) infested by all stages of the green peach aphid (Myzus persicae) are sprayed with an active ingredient formulation of the desired concentration. After 5 days, the efficacy in % is determined. 100% means that all the aphids have been killed; 0% means that no aphids have been killed.

For test [4], the system named is Ctenocephalides felis. The experiment in a line: Ctenocephalides felis oral test. The following applies: 48 h, application rate 100 ppm in citrated cattle blood, kill after 2 days, read-out: efficacy. The protocol:
Solvent: dimethyl sulfoxide To produce a suitable active ingredient formulation, 10 mg of active ingredient are mixed with 0.5 ml of dimethyl sulfoxide. Dilution with citrated cattle blood gives the desired concentration. About 20 unfed adult cat fleas (Ctenocephalides felis) are placed into a chamber which is closed at the top and bottom with gauze. A metal cylinder whose bottom end is closed with parafilm is placed onto the chamber. The cylinder contains the blood/active ingredient formulation, which can be imbibed by the fleas through the parafilm membrane. After 2 days, the kill in % is determined. 100% means that all of the fleas have been killed; 0% means that none of the fleas have been killed.

For test [5], the system named is Spodoptera frugiperda. Briefly: Spodoptera frugiperda spray test. The following applies: foliar, 168 h, application rate 100 g/ha, maize leaf discs, caterpillars, after 7 days, read-out: efficacy. The protocol:
[table] To produce a suitable active ingredient formulation, 1 part by weight of active ingredient is dissolved with the specified parts by weight of solvent and made up to the desired concentration with water containing an emulsifier concentration of 1000 ppm. To produce further test concentrations, the formulation is diluted with emulsifier-containing water. Leaf discs of maize (Zea mays) are sprayed with an active ingredient formulation of the desired concentration and, after drying, populated with caterpillars of the fall armyworm (Spodoptera frugiperda). After 7 days, the efficacy in % is determined. 100% means that all the caterpillars have been killed; 0% means that no caterpillar has been killed.

Test [6] has as its system Phaedon cochleariae. Briefly: Phaedon cochleariae spray test. The following applies: 168 h, application rate 100 g/ha, larvae, after 7 days, read-out: efficacy. As to the method:
as §1, with “pekinensis)” for “pekinensis) infested by all stages of the green peach aphid (Myzus persicae)”, “concentration and, after drying, populated with larvae of the mustard beetle (Phaedon cochleariae).” for “concentration.”, “7” for “5”, “beetle larvae” for “aphids”

Take `CCn1c(Br)nc(-c2nc3cc(C(F)(F)F)ncc3n2C)c1S(=O)(=O)CC` [Example I-001]: in test [1], the pest or weed control at 100 ppm turned out to be 100%. The pest or weed control at 4 ppm in test [2] was 100%.

In the case of `C=C(C)c1nc(-c2nc3cc(C(F)(F)F)ncc3n2C)c(S(=O)(=O)CC)n1C` [Example I-008], the pest or weed control at 100 ppm in test [1] was determined as 100%. Moreover, the pest or weed control at 4 ppm in test [2] was 100%. Besides, the pest or weed control at 100 g/ha in test [3] worked out at 90%.

Consider `CCS(=O)(=O)c1c(-c2nc3cc(C(F)(F)F)ncc3n2C)nc(-c2ccccc2)n1C(C)C` [Example I-012], for which, in test [1], the pest or weed control at 100 ppm was 100%. Further, the pest or weed control at 4 ppm in test [2] worked out at 100%. The pest or weed control at 100 g/ha in test [3] turned out to be 90%.

Regarding `CCS(=O)(=O)c1c(-c2nc3cc(C(F)(F)F)ncc3n2C)nc(-c2ccncc2)n1C` [Example I-021], in test [1], the pest or weed control at 100 ppm was determined as 80%. Besides, the pest or weed control at 4 ppm in test [2] came to 100%. For the same compound, in test [3], the pest or weed control at 100 g/ha worked out at 100%.

For `CCS(=O)(=O)c1c(-c2nc3cc(C(F)(F)F)ncc3n2C)nc(Cl)n1C(C)C` [Example I-025], the pest or weed control at 100 ppm in test [4] turned out to be 80%. In addition, in test [2], the pest or weed control at 4 ppm was 100%. Besides, the pest or weed control at 100 g/ha in test [5] turned out to be 100%.

For `CCS(=O)(=O)c1c(-c2nc3cc(C(F)(F)F)ncc3n2C)nc(-n2cc(Cl)cn2)n1C` [Example I-027, 2-[2-(4-chloro-1H-pyrazol-1-yl)-5-(ethylsulfonyl)-1-methyl-1H-imidazol-4-yl]-3-methyl-6-(trifluoromethyl)-3H-imidazo[4,5-c]pyridine], the pest or weed control at 4 ppm in test [2] worked out at 100%. In addition, the figures for the pest or weed control at 100 g/ha in test [3], in test [6] and in test [5] were 90%, 100% and 100%, respectively.

Take `CCS(=O)(=O)c1c(-c2nc3cc(C(F)(F)F)ncc3n2C)nc(-c2ccnnc2)n1C` [Example I-030]: the pest or weed control at 100 ppm in test [1] turned out to be 100%. Moreover, in test [2], the pest or weed control at 4 ppm is 100%. The pest or weed control at 100 g/ha in test [3] is 100%.

With `CCS(=O)(=O)c1c(-c2nc3cc(C(F)(F)F)ncc3n2C)nc(C(N)=O)n1C` [Example I-038, 5-(Ethylsulfonyl)-1-methyl-4-[3-methyl-6-(trifluoromethyl)-3H-imidazo[4,5-c]pyridin-2-yl]-1H-imidazole-2-carboxamide], the pest or weed control at 100 ppm in test [4] came to 100%. Besides, in test [2], the pest or weed control at 4 ppm came out at 100%. Also, the pest or weed control at 100 g/ha in test [3] came out at 90%; in test [6], 100%.

As for `CCS(=O)(=O)c1c(-c2nc3cc(C(F)(F)F)ncc3n2C)nc(C(=O)NC)n1C` [Example I-039], the pest or weed control at 100 ppm in test [4] came to 100%. Moreover, the pest or weed control at 4 ppm in test [2] amounted to 100%. For the same compound, in test [3], the pest or weed control at 100 g/ha was found to be 100%.

Consider `CCS(=O)(=O)c1c(-c2nc3cc(C(F)(F)F)ncc3n2C)nc(C(=O)N(C)C)n1C` [Example I-040], for which the figures for the pest or weed control at 100 ppm in test [4] and in test [1] were 90% and 100%, respectively. In addition, in test [2], the pest or weed control at 4 ppm came to 100%. Also, the pest or weed control at 100 g/ha in test [3] worked out at 100%.

Consider `CCS(=O)(=O)c1c(-c2nc3cc(C(F)(F)F)ncc3n2C)nc(-c2ccsc2)n1C` [Example I-043], for which the pest or weed control at 100 ppm in test [1] was 100%. In addition, in test [2], the pest or weed control at 4 ppm worked out at 100%. Also, the pest or weed control at 100 g/ha in test [3] came out at 90%.

As for `CCS(=O)(=O)c1c(-c2nc3cc(C(F)(F)F)ncc3n2C)nc(C(N)=S)n1C` [Example I-046, 5-(Ethylsulfonyl)-1-methyl-4-[3-methyl-6-(trifluoromethyl)-3H-imidazo[4,5-c]pyridin-2-yl]-1H-imidazole-2-carbothioamide], the pest or weed control at 100 ppm in test [1] worked out at 95%. The pest or weed control at 4 ppm in test [2] was determined as 100%. Moreover, the pest or weed control at 100 g/ha in test [6] worked out at 100%.

Consider `CCS(=O)(=O)c1c(-c2nc3cc(C(F)(F)F)ncc3n2C)nc(-c2ccc(Cl)s2)n1C` [Example I-057], for which, in test [2], the pest or weed control at 4 ppm worked out at 100%. Further, the pest or weed control at 100 g/ha in test [3] was 90%; in test [6] it was 100%; in test [5], 67%.

With `CCS(=O)(=O)c1c(-c2nc3cc(C(F)(F)F)ncc3n2C)nc(-c2ccn(C)n2)n1C` [Example I-060], in test [2], the pest or weed control at 4 ppm came to 100%. For the same compound, the pest or weed control at 100 g/ha stood at 100% in test [3], 100% in test [6] and 83% in test [5].

As to `CCS(=O)(=O)c1c(-c2nc3cc(C(F)(F)F)nnc3n2C)nc(-c2ccc(Cl)cc2)n1C` [Example I-063], the pest or weed control at 4 ppm in test [2] worked out at 100%. The pest or weed control at 100 g/ha in test [3], in test [6] and in test [5] was 100% each time.

Regarding `CCS(=O)(=O)c1c(-c2nc3cc(C(F)(F)F)ncc3n2C)nc(-c2ccc(C3(C#N)CC3)cc2)n1C` [Example I-069], the pest or weed control at 4 ppm in test [2] was 100%. Further, the pest or weed control at 100 g/ha in test [3] was found to be 90%; in test [6] it was 100%; in test [5], 100%.

On to `CCS(=O)(=O)c1c(-c2nc3cc(C(F)(F)F)ncc3n2C)nc(-c2ccc(C(F)(F)F)cc2C)n1C` [Example I-078], for which the pest or weed control at 4 ppm in test [2] came out at 90%. For the same compound, the pest or weed control at 100 g/ha in test [6] and in test [5] was 100% each time.

Turning to `CCS(=O)(=O)c1c(-c2nc3cc(C(F)(F)F)ncc3n2C)nc(-c2cc(Cl)c(C(F)(F)F)cc2C)n1C` [Example I-081], the pest or weed control at 4 ppm in test [2] came to 100%. Further, the pest or weed control at 100 g/ha in test [6] and in test [5] was 100% in each case.

`CCS(=O)(=O)c1c(-n2cc3cnc(C(F)(F)F)cc3n2)nc(-c2ccc(Cl)cc2)n1C` [Example I-093]: in test [2], the pest or weed control at 4 ppm was 100%. For the same compound, the pest or weed control at 100 g/ha in test [6] and in test [5] was 100% each time.

Turning to `CCS(=O)(=O)c1c(-n2cc3ncc(C(F)(F)F)cc3n2)nc(-c2ccc(Cl)cc2)n1C` [Example I-094], the pest or weed control at 4 ppm in test [2] was 100%. Besides, the pest or weed control at 100 g/ha came out at 83% in test [6] and 100% in test [5].

For the compound `CCS(=O)(=O)c1c(-n2cc3ncc(C(F)(F)F)cc3n2)nc(-c2ccccc2)n1C` [Example I-096], the pest or weed control at 4 ppm in test [2] turned out to be 90%. Further, the pest or weed control at 100 g/ha in test [3] was determined as 90%; in test [6] it was 100%; in test [5], 83%.

Take `CCS(=O)(=O)c1c(-n2cc3cnc(C(F)(F)F)cc3n2)nc(-c2ccc(C(F)(F)F)cc2)n1C` [Example I-097]: in test [2], the pest or weed control at 4 ppm was found to be 100%. In addition, the pest or weed control at 100 g/ha in test [6] and in test [5] was 100% throughout.

As to `CCS(=O)(=O)c1c(-n2cc3ncc(C(F)(F)F)cc3n2)nc(-c2ccc(C(F)(F)F)cc2)n1C` [Example I-098, 2-{5-(Ethylsulfonyl)-1-methyl-2-[4-(trifluoromethyl)phenyl]-1H-imidazol-4-yl}-6-(trifluoromethyl)-2H-pyrazolo[4,3-b]pyridine], the pest or weed control at 4 ppm in test [2] was found to be 100%. In addition, the pest or weed control at 100 g/ha in test [6] and in test [5] was 100% throughout.
